Assay results taken from US4315935A, “N,N'-Bis[substituted-1,2,3,4-tetrahydroisoquinolinolyl]disulfonylimides and antiallergic compositions and method of use” (SmithKline Corporation, priority 1980, dated 1982).

Tested on: SRS-A
Assay: inhibition of SRS-A induced contraction of guinea pig ileum
Format: cell-based
Conditions: Cavia porcellus, 0.25 h; for inhibition at 5 µM: read-out: […], compound concentration 5 × 10^-6 M, SRS-A agonist 40 μg/ml, read-out: PERCENTAGE ANTAGONISM; for inhibition at 1 µM: read-out: […], compound concentration 1 × 10^-6 M, SRS-A agonist 40 μg/ml, read-out: PERCENTAGE ANTAGONISM
Description: The SRS-A antagonist activity of the compounds of this invention is measured by the ability of the active medicament to inhibit SRS-A induced contraction of guinea pig ileum. In this test system, sections of ileum are resected from guinea pigs and placed in 5 ml. tissue baths containing a modified Tyrode's solution. One end of the tissue is fixed to a glass tissue holder, the other is connected to a force-displacement transducer and the tissue is placed under a tension of 500 mg. Isometric tissue contractions are recorded on a six channel polygraph. Baths are constantly aerated with 95% O2 -5% CO2. After a 20 minute stabilization period a concentration of the appropriate agonist which provides a contraction height of 60-80% of the maximum obtainable to that agonist (as determined from full sequential concentration--response curves in separate experiments) is added to the tissue bath and the response recorded. The procedure is repeated until reproducible responses are obtained. For most agonists, two applications in rapid succession, followed 15 minutes later by a third, is sufficient to establish reproducibility. Experimental tissues are incubated with the selected concentration of the test compounds for 15 minutes. Experimental and control tissues are subjected to 5 bath changes during the incubation interval. Changes in bath fluid during the incubation period are helpful in insuring the reproducibility of tissue responses to the agonist. The same concentration of the agonist is reapplied in the presence of the test compound and the response registered and compared with controls. Percent inhibition produced by the test compound is calculated by substracting the mean percentage change in control tissue from the means percentage change in tissues exposed to the test compound. Additional compounds are then evaluated as long as the tissue remains reproducibly responsive to the agonist. Six tissues obtained from 6 animals are used simultaneously--3 controls and 3 experimental.
The compounds of this invention tested at concentrations of from 5×10^-5 M to 1×10^-6 M produce marked antagonism of partially purified slow reacting substance of anaphylaxis obtained from guinea pig lung. The agonist is employed at a concentration of 40 μg/ml. Representative of this effect, tabulated below are a number of the claimed compounds and percentage antagonism of SRS-A at various compound concentrations.

Compound | inhibition at 5 µM [%] | inhibition at 1 µM [%]
O=S(=O)(Nc1cccc(Cl)c1)c1ccc(Cl)c2c1CCN(S(=O)(=O)NS(=O)(=O)N1CCc3c(S(=O)(=O)Nc4cccc(Cl)c4)ccc(Cl)c3C1)C2 [Compound 30, N,N'-bis[8-chloro-5-(3-chlorobenzeneaminosulfonyl)-1,2,3,4-tetrahydroisoquinolyl]disulfonylimide] | 63 | 
O=S(=O)(Nc1ccc(C(F)(F)F)cc1)c1ccc2c(c1)CN(S(=O)(=O)NS(=O)(=O)N1CCc3ccc(S(=O)(=O)Nc4ccc(C(F)(F)F)cc4)cc3C1)CC2 [Compound 8] | 57 | 49
O=S(=O)(Nc1cccc(Cl)c1)c1ccc2c(c1)CN(S(=O)(=O)NS(=O)(=O)N1CCc3ccc(S(=O)(=O)Nc4cccc(Cl)c4)cc3C1)CC2 [Compound 1, N,N'-bis[7-(3-chlorobenzeneaminosulfonyl)-1,2,3,4-tetrahydroisoquinolyl]disulfonylimide] | 67.5 | 
O=S(=O)(Nc1ccc(Br)cc1)c1ccc2c(c1)CN(S(=O)(=O)NS(=O)(=O)N1CCc3ccc(S(=O)(=O)Nc4ccc(Br)cc4)cc3C1)CC2 [Compound 6] | 42.2 | 
O=S(=O)(Nc1ccccc1Cl)c1ccc2c(c1)CN(S(=O)(=O)NS(=O)(=O)N1CCc3ccc(S(=O)(=O)Nc4ccccc4Cl)cc3C1)CC2 [Compound 3] | 24.8 | 
O=S(=O)(Nc1ccccc1)c1ccc2c(c1)CN(S(=O)(=O)NS(=O)(=O)N1CCc3ccc(S(=O)(=O)Nc4ccccc4)cc3C1)CC2 [Compound 2] | 42.3 | 
O=S(=O)(Nc1cccc(Cl)c1)c1c(Cl)ccc2c1CN(S(=O)(=O)NS(=O)(=O)N1CCc3ccc(Cl)c(S(=O)(=O)Nc4cccc(Cl)c4)c3C1)CC2 [Compound 23, N,N'-Bis[7-Chloro-8-(3-Chlorobenzeneaminosulfonyl)-1,2,3,4-Tetrahydroisoquinolyl]disulfonylimide] | 48 | 
CN(c1ccc(Cl)cc1)S(=O)(=O)c1ccc2c(c1)CN(S(=O)(=O)NS(=O)(=O)N1CCc3ccc(S(=O)(=O)N(C)c4ccc(Cl)cc4)cc3C1)CC2 [Compound 15] | 57.3 | 
Cc1ccc(NS(=O)(=O)c2ccc3c(c2)CN(S(=O)(=O)NS(=O)(=O)N2CCc4ccc(S(=O)(=O)Nc5ccc(C)c(C)c5)cc4C2)CC3)cc1C [Compound 13] | 62 | 
O=S(=O)(Nc1ccc(Cl)c(Cl)c1)c1ccc2c(c1)CN(S(=O)(=O)NS(=O)(=O)N1CCc3ccc(S(=O)(=O)Nc4ccc(Cl)c(Cl)c4)cc3C1)CC2 [Compound 11] | 56 | 49
O=S(=O)(Nc1ccc(Cl)c(C(F)(F)F)c1)c1ccc2c(c1)CN(S(=O)(=O)NS(=O)(=O)N1CCc3ccc(S(=O)(=O)Nc4ccc(Cl)c(C(F)(F)F)c4)cc3C1)CC2 [Compound 12] | 91.5 | 41
O=S(=O)(Nc1ccc(Cl)cc1)c1ccc2c(c1)CN(S(=O)(=O)NS(=O)(=O)N1CCc3ccc(S(=O)(=O)Nc4ccc(Cl)cc4)cc3C1)CC2 [Compound 4] | 51.2 | 
O=S(=O)(Nc1cccc(Br)c1)c1ccc2c(c1)CN(S(=O)(=O)NS(=O)(=O)N1CCc3ccc(S(=O)(=O)Nc4cccc(Br)c4)cc3C1)CC2 [Compound 5] | 68 | 54
O=[N+]([O-])c1cccc(NS(=O)(=O)c2ccc3c(c2)CN(S(=O)(=O)NS(=O)(=O)N2CCc4ccc(S(=O)(=O)Nc5cccc([N+](=O)[O-])c5)cc4C2)CC3)c1 [Compound 9] | 36 | 
Cc1ccc(NS(=O)(=O)c2ccc3c(c2)CN(S(=O)(=O)NS(=O)(=O)N2CCc4ccc(S(=O)(=O)Nc5ccc(C)c(Cl)c5)cc4C2)CC3)cc1Cl [Compound 14] | 84 | 
O=S(=O)(Nc1cccc(C(F)(F)F)c1)c1ccc2c(c1)CN(S(=O)(=O)NS(=O)(=O)N1CCc3ccc(S(=O)(=O)Nc4cccc(C(F)(F)F)c4)cc3C1)CC2 [Compound 7] | 65 | 
